Data on one compound can be found in publication PMC3434039, “Overexpression of an exotic thermotolerant β-glucosidase in trichoderma reesei and its significant increase in cellulolytic activity and saccharification of barley straw” (Microbial Cell Factories, 2012).

This test concerns the target T1, Periconia sp. BGLI (recombinant β-glucosidase, bgl1) (Periconia sp. BCC 2871, UniProt A9UIG0, T284I/N305T).
T1 construct: full-length bgl1 (2601 bp cDNA, own signal peptide) expressed in T. reesei QM9414 under tef1 promoter, secreted, culture supernatant; predicted about 95 kDa, glycosylated
Put plainly: MUG zymogram after native PAGE of culture supernatant. Type of test: biochemical. The settings on record: 5 mM MUG, 50 mM sodium citrate, pH 5.0, 70 °C, 10 min. The text has this: MUG zymogram after native PAGE of culture supernatant on Periconia sp.

T1 sequence (A9UIG0 entry or part of it T284I/N305T): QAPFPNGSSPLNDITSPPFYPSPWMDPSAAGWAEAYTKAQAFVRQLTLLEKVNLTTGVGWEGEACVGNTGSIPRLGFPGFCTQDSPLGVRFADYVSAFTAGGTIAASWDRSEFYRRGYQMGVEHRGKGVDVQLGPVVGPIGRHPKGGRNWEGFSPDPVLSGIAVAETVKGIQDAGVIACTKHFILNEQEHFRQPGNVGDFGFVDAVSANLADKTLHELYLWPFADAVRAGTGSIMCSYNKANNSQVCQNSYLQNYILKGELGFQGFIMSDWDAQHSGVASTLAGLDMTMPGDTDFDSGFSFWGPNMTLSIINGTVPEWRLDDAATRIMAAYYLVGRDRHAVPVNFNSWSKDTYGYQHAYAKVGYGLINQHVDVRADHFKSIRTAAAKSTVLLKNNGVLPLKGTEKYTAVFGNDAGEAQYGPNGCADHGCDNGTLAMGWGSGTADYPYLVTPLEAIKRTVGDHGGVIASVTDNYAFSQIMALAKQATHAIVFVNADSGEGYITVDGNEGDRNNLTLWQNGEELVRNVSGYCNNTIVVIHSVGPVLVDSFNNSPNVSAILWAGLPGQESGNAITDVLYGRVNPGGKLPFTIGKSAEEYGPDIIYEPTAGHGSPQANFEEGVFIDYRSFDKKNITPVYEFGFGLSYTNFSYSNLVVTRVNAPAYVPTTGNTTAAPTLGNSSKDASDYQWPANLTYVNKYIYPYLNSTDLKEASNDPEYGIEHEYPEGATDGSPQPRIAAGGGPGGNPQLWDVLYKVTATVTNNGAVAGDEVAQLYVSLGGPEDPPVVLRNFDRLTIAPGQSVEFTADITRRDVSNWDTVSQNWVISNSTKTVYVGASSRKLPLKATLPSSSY

Regarding `Cc1cc(=O)oc2cc(O[C@@H]3O[C@H](CO)[C@@H](O)[C@H](O)[C@H]3O)ccc12` [4-methylumbelliferyl β-D-glucopyranoside], the “MUG zymogram after native PAGE of culture supernatant” value is listed as “second active β- glucosidase with higher molecular weight was only obtained from the transformants”.
